For this experiment, the system named is Influenza A 2009 pandemic H1N1 PA subunit polypeptide fragment or variant thereof. Kind of experiment: Inhibition of endonucleolytic activity of PA subunit polypeptide fragment. Format: biochemical, Influenza A 2009 pandemic H1N1 virus.

For the compound `O=C(O[C@@H]1Cc2c(O)cc(O)cc2O[C@@H]1c1cc(O)c(O)c(O)c1)c1cc(O)c(O)c(O)c1` [EGCG, [(2R,3R)-5,7-dihydroxy-2-(3,4,5-trihydroxyphenyl)chroman-3-yl]3,4,5-trihydroxybenzoate], the “ability to modulate, i.e. to inhibit, the endonucleolytic activity” value (from here on “ability to modulate, i.e. to inhibit”) is reported as “inhibit”. Regarding `O=C(O)/C(O)=C/C(=O)C1(Cc2ccc(Cl)cc2)CCN(CC2CCCCC2)CC1` [EMBL-R05-2, 4-[4-[(4-chlorophenyl)methyl]-1-(cyclohexylmethyl)-4-piperidinyl]-2-hydroxy-4-oxo-2-butenoic acid], the “ability to modulate, i.e. to inhibit” value is “inhibit”. `O=C(O)/C(O)=C/C(=O)C1(Cc2ccc(Cl)cc2)CCCN(Cc2ccccc2)C1` (stereo not drawn) [EMBL-R05-3, 4-[3-[(4-chlorophenyl)methyl]-1-(phenylmethyl)-3-piperidinyl]-2-hydroxy-4-oxo-2-butenoic acid]: the “ability to modulate, i.e. to inhibit” value was “inhibit”.

These data come from patent US9181307B2, “Influenza A 2009 pandemic H1N1 polypeptide fragments comprising endonuclease activity and their use” (priority 2010, dated 2015).
